Marks after values point to notes of the source that are not given here.

These results are taken from patent US20180179292A1, “RKIP AGONISM IN THE TREATMENT AND PREVENTION OF HEART FAILURE” (Leibniz-Institut für analytische Wissenschaften- ISAS-e.V., priority 2015, published 2018).

One assay deals with Wt and RKIP-tg mice. The experiment in a line: Left ventricular catheterization with esmolol infusion. The format is in vivo, mouse. The protocol: For left ventricular pressure measurements we inserted a 1.4F pressure catheter (Millar Instruments) into the right carotid artery and advanced it to the left ventricular chamber. During measurement we injected esmolol (12 μg/min for 1 min) or dobutamine (in increasing doses: 75, 150, 375, 750 and 1500 ng/min) into the V. jugularis. We analyzed data using the Chart software (Chart5.4, AD Instruments) as previously described^60. We excluded mice with heart rates below 450 bpm (or below 430 bpm in the case of β1KO or RKIP-tg/β1KO mice).

In assay [1] the test system is RyR2, PLN and TnI phosphorylation. In words: Isoproterenol infusion with or without ICI 118,551, immunoblot of heart lysates. The assay is classed as in vivo, mouse. From the text: Immunoblot quantification of (a) pPLN(S16), (b) pTnI (SS23/24), (c) pRyR2(S2808) and pRyR2(S2814) in heart lysates of untreated (Con) and isoproterenol-treated mice and mice treated with Iso in combination with ICI 118,551. pPLN(S16), n=13; pTnI(SS23/24), n=11; pRyR2(S2808), n=12; n are mice per group; mean±SEM; *, p<0.05 vs. Con. Immunoblot analysis of Con vs. Iso for RyR2 phosphorylation (pRyR2[S2808] and pRyR2[S2814]) show significant differences when a t-test analysis is applied (#, p<0.05 vs. Con).
We intravenously infused isoproterenol (1.1 μg/min for 2 min) with or without ICI 118,551 (0.14 μg/min for 2 min) via the V. jugularis as indicated. We pretreated mice with pertussis toxin (PTX; 300 μg/kg body weight; i.p) for 24 h as indicated. Mice were sacrificed and hearts were used for Western blot analyses. Efficiency of Gαi inhibition by PTX was evaluated by in vitro PTX-catalyzed ADP ribosylation in the presence of [^32P]-nicotinamide adenine dinucleotide ([^32P]NAD). […] After filtration through a 200 μm-mesh, we determined the protein content of the tissue homogenate and then incubated 30 μg of protein with 0.1 μM [^32P]NAD (800 Ci/mmol) in a buffer containing 20 mM Tris-HCl (pH7.6), 15 mM thymidine, 1 mM EDTA, 1 mM ATP, 0.1 mM GDP and 1 μg of PTX (preactivated) for 1 h at 30° C. […] Proteins were separated on SDS-PAGE and incorporated [^32P] was assessed by Phospholmager analysis. […]
(A western blot detects proteins with antibodies after separation by electrophoresis.)

In a further assay the test system is Wt mice. In words: Chronic isoproterenol infusion via osmotic minipumps in Wt mice (echocardiography, interstitial fibrosis). The format is in vivo, mouse. Particulars: mean ± SEM. The protocol: (§1) Echocardiographic measurements and histological analysis of interstitial fibrosis of wild-type (Wt) and RKIP transgenic (RKIP-tg) mice before and after 4 weeks of isoproterenol application via osmotic minipumps (Iso; 30 mg/kg/d). Shown are measurements of wall thicknesses (interventricular septal [IVS] and left ventricular posterior wall [LVPW]), left ventricular internal dimension (LVID), fractional shortening (FS), ejection fraction (EF), heart rates and the quantification of interstitial fibrosis (arbitrary units) of Sirius Red-stained left ventricular myocyrdial sections. Values represent mean (±SEM); *, p<0.05 vs. Con; #, p<0.05 vs. Wt Iso; $, p<0.05 vs. Wt Con. n represent the number of mice (for the analysis of interstitial fibrosis one transverse section was analyzed per mouse).
(§2) Osmotic minipumps (Alzet, model 1004) were implanted subcutaneously in male 8-week old Wt and RKIP-tg mice (C57/BL/6J background). The implanted pumps continuously released isoproterenol for 4 weeks (30 mg/kg body weight/day).
(§3) We performed transthoracic echocardiograms in a blinded manner using the Vevo700 or Vevo2100 high-resolution imaging systems (VisualSonics) and a 30-MHz probe. We obtained values for end-diastolic septal and posterior wall thicknesses as well as end-diastolic and -systolic internal diameters from 2D M-mode images in the short axis view at the proximal level of the papillary muscles. We obtained peak blood flow velocities at the site of TAC [Vmax (millimetres per second)] from pulsed-waved Doppler measurements. We calculated fractional shortening (FS), ejection fraction (EF), and aortic pressure gradients (mmHg) by VisualSonics Cardiac Measurements software. The shown data represent averages of at least six cardiac cycles per animal. We excluded mice with heart rates below 450 bpm (or below 430 bpm in the case of β1KO or RKIP-tg/(β1KO mice).
(§4) After fixation of hearts in 4% (m/v) paraformaldehyde, hearts were embedded in paraffin. Sections (2 μm) were stained with haematoxylin and eosin or with Sirius Red as described previously^60. For quantification of fibrosis, we stained left ventricular sections with Sirius Red and subsequently analyzed […] by semi-automated image analyses in blinded manner. For immunostaining, we used Vectastain Elite ABC Reagent with biotinylated goat-anti-rabbit IgG in combination with diaminobenzidine (DAB) and glucose oxidase (Sigma) similarly as described previously^60,61. We counterstained nuclei with haematoxylin.

In a further assay the test system is RKIP-tg mice. The experiment in a line: Chronic isoproterenol infusion via osmotic minipumps in RKIP-tg mice (echocardiography, interstitial fibrosis). The conditions noted are these: mean ± SEM. The assay is classed as in vivo, mouse. The protocol:
as §1, §2, §3, §4

Assay [2] concerns RKIP. The experiment in a line: RKIP activation (Ser153 phosphorylation, pRKIP) in neonatal rat cardiomyocytes (Western blot). The assay is classed as cell-based. The conditions noted are these: NRCM, 25 and 75 μg/ml, 30 h. The protocol: NRCM were treated with rituximab (25 μg u. 75 μg/ml) or bevacizumab (25 μg u. 75 μg/ml) for 30 h and Western blot analysis performed. Gβ was used as loading control.
NRCM were treated with rituximab (25 μg u. 75 μg/ml) for 30 h and Western blot analysis and quantification using ImageJ was performed. Gβ was used as loading control. SEM, n=3, *, p=0.0004
NRCM were treated with rituximab (25 μg u. 75 μg/ml) for 30 h and Western blot analysis and quantification using ImageJ was performed. Gβ was used as loading control. SEM, n=4, *, p=0.0004
We homogenized left ventricular tissue or cells in lysis buffer (1% [v/v] Triton-X-100, 5 mM EDTA, 300 mM NaCl, 50 mM Tris [pH7.4], supplemented with protease and phosphatase inhibitors). We removed cell debris by centrifugation (10 min, 1000×g, 4° C.) and used lysates for Western blot analysis: We determined protein concentrations and used equal amounts of protein for immunoblot analysis. We separated proteins by SDS-PAGE and transferred them to PVDF membranes. […] To average our immunoblot experiments and to present semi-quantitative results, we quantified immunoblot signals using ImageJ. […]

Assay [3] concerns RKIP. In words: RKIP expression in neonatal rat cardiomyocytes (Western blot). The assay is classed as cell-based. The conditions noted are these: NRCM, 75 μg/ml, 30 h. The protocol:
500 000 NRCM/Well were plated in 12 Well plates, cultured for 24 h and subsequently treated with the indicated compounds for 30 h inkubiert. Cells were lysed, Western blots performed and signals were quantified using ImageJ (n=11). Shown are SEM; *. p=0.0003
We homogenized left ventricular tissue or cells in lysis buffer (1% [v/v] Triton-X-100, 5 mM EDTA, 300 mM NaCl, 50 mM Tris [pH7.4], supplemented with protease and phosphatase inhibitors). We removed cell debris by centrifugation (10 min, 1000×g, 4° C.) and used lysates for Western blot analysis: We determined protein concentrations and used equal amounts of protein for immunoblot analysis. We separated proteins by SDS-PAGE and transferred them to PVDF membranes. We blocked membranes for 1 h with 5% (w/v) fat-free milk dissolved in 10 mM Tris (pH7.6), 100 mM NaCl and 0.1% (v/v) Tween-20, incubated membranes with primary antibodies overnight at 4° C., thereafter with secondary antibodies conjugated with horseradish peroxidase (HRP) and used the Pierce™ ECL Plus Western blotting kit for detection. To average our immunoblot experiments and to present semi-quantitative results, we quantified immunoblot signals using ImageJ.
For the detection of RKIP phosphorylation (“activation as GRK2 inhibitor”), we used antibodies directed againt Ser153-phosphorylation of RKIP (pRKIP[hSer153], sc-32623, Santa Cruz Biotechnology; pRKIP [rSer153], sc-32622, Santa Cruz Biotechnology). For RKIP expression levels we used antibodies directed against RKIP (RKIP, sc5422, Santa Cruz Biotechnology; RKIP antibodies raised against recombinant GST-RKIP as antigen (Lorenz et al., 2003).
We tested an anti-CD20 antibody (such as rituximab) and an anti-VEGF antibody (such as bevacizumab) and several other therapeutic antibodies (obtained from the hospital pharmacy, Uniklinik Wiirzburg) on RKIP expression and RKIP activation (Ser153 phosphorylation) in neonatal rat cardiomyocytes as well as cardiomyocyte contractility.

Assay [4] has as its system neonatal rat cardiomyocytes (NRCM). In words: Contractile activity of neonatal rat cardiomyocytes. Particulars: in the presence of isoprenaline (50 nM), 33° C., beats per minute. The format is cell-based. The protocol:
NRCM were cultured for 24 h and transduced as indicated with a control virus (LacZ) or a virus encoding RKIP-wt and/or treated with rituximab as indicated. The spontaneous contractions were measured at 33° C. for one minute and normalized for each experiment to LacZ under unstimulated conditions. NRCM were then stimulated with isoproterenol (50 nM) and after 2 min contractions were counted again. SEM; *, p<0.0001, n=5
Neonatal rat cardiomyocytes were isolated as described (Lorenz et al. Nature 2003, 426:574-579; Vidal et al., Cardiovasc. Res. 2012, 96:255-264). Cardiomyocytes were transduced by adenoviruses or treated with indicated antibodies. To monitor the contractile activity of cardiomyocytes, live cells were examined on a Zeiss Axiovert 135 microscope.

[5] abbreviates: 4 weeks isoproterenol 30 mg/kg/d via osmotic minipumps.
[6] abbreviates: 4 weeks isoproterenol 30 mg/kg/d, Sirius Red-stained left ventricular sections.

For the compound `COC(=O)CCc1ccc(OCC(O)CNC(C)C)cc1` (stereo not drawn) [Esmolol, esmolol], the “rates of contraction and relaxation (dP/dtmax, dP/dtmin)” value in the assay on Wt and RKIP-tg mice (esmolol 12 μg/min for 1 min, RKIP-tg mice) was “largely attenuated increased rates of contraction and relaxation”. Moreover, the heart rates result in the assay with Wt and RKIP-tg mice (esmolol 12 μg/min for 1 min into V. jugularis, Wt and RKIP-tg mice) is “effectively reduced heart rates”.
For `Cc1ccc(OCC(O)C(C)NC(C)C)c2c1CCC2` (stereo not drawn) [ICI 118,551], the “RyR2(S2808/S2814) phosphorylation” value in assay [1] (isoproterenol plus ICI 118,551 (0.14 μg/min for 2 min i.v.) vs. isoproterenol alone) is recorded as “much stronger phosphorylation of RyR2”. Moreover, the “PLN and TnI phosphorylation” value in assay [1] (isoproterenol plus ICI 118,551 vs. isoproterenol alone) was “hardly affected PLN and TnI phosphorylation”.
`CC(C)NCC(O)c1ccc(O)c(O)c1` (stereo not drawn) [Iso, isoproterenol]: in the assay on Wt mice (setting [5]), the EF was 73.0 ± 2.52^$ %; the FS is on record as 41.6 ± 2.00^$ % of LVID; the Heart rate was 654 ± 25* bpm; the “IVS, end-diastolic” value is 0.74 ± 0.039* mm. In addition, in the assay on Wt mice (setting [5]), the “LVID, end-diastolic” value turned out to be 3.69 ± 0.172 mm and the “LVPW, end-diastolic” value was 0.76 ± 0.036* mm. Besides, the Interstitial fibrosis in the assay with Wt mice (setting [6]) was 2.05 ± 0.336* arbitrary units. In the assay with RKIP-tg mice (setting [5]), the EF was 87.1 ± 1.64*^# %; the FS was 55.9 ± 1.98*^# % of LVID; the Heart rate is 668 ± 21* bpm; the “IVS, end-diastolic” value is reported as 0.81 ± 0.026* mm. Moreover, in the assay with RKIP-tg mice (setting [5]), the “LVID, end-diastolic” value is given as 3.08 ± 0.086 mm and the “LVPW, end-diastolic” value was 0.84 ± 0.022* mm. In addition, in the assay on RKIP-tg mice (setting [6]), the Interstitial fibrosis is on record as 1.05 ± 0.263*^# arbitrary units.
With “bevacizumab: anti-VEGF antibody, recombinant humanized monoclonal IgG1”, the “"active" RKIP (Ser153-phosphorylation)” value in the assay with RKIP [2] was “increased”. For the same compound, in the assay with RKIP [3], the RKIP expression entry was “most up-regulation of RKIP expression”.
As for panitumumab: anti-EGFR antibody, in the assay on RKIP [3], the RKIP expression result was “up-regulation of RKIP expression”.
As to rituximab: anti-CD20 antibody, the “"active" RKIP (Ser153-phosphorylation)” value in the assay with RKIP [2] is recorded as “increased”. The NRCM contractility result in assay [4] was “increased NRCM contractility”. Further, the RKIP expression result with RKIP [3] is “even more prominent up-regulation of RKIP”.
